“Also recorded” adds a separate entry of the source.
Legend:
CTL line Bx63 = experiment: p-MHC class I tetramer staining of CTL line Bx63; assay type: cell-based, bovine; conditions: cell line Bx63; Tp8_379-387-BoLA-3*00101 tetramers
Procedure: (§1) UFC510024] at 14 000 g for 10 min.

BoLA-6*01301 = tested on: BoLA-6*01301
Procedure: Peptides were purchased from Mimotopes (Victoria, Australia) at a purity of 95% and re-suspended in water containing 0.1% acetic acid at a final concentration of 10 mM and diluted to working concentrations in sterile water. The sequences of T. parva peptide epitopes are as in Table 1.

CTL line BB007 [1] = experiment: p-MHC class I tetramer staining of CTL line BB007; assay type: cell-based, bovine; conditions: peptide as BoLA-6*01301 tetramer, PE-streptavidin; Figure 1
Procedure: as §1

CTL line Bx196 = experiment: p-MHC class I tetramer staining of CTL line Bx196; assay type: cell-based, bovine; conditions: cell line printed as 196; Tp2_96-104-BoLA-T2c tetramers
Procedure: as §1

BoLA-1*02301 = experiment: p-MHC monomer binding assay, BoLA-1*02301; set-up: species or system bovine; conditions: data not shown
Procedure: (§2) Folding of p-MHC class I complexes was assessed with an ELISA assay as described in [35]. […] After an incubation of 48 h at 18 °C, the complexes were transferred to another 96-well plate pre-coated with streptavidin (Nunc, cat# 436014), which captures biotinylated HC, and incubated for three hours at 4 °C. After washing, the W6/32 monoclonal antibody (Santa Cruz Biotechnology, Texas, USA, cat # SC-32235), which binds to a monomorphic epitope on β2m but only when it is incorporated in p-MHC class I complexes, was added for 1 h at 4 °C. After washing, anti-mouse IgG coupled to peroxidase (Sigma Aldrich, cat # A9917-1ML) was added to the plate followed by incubation for an hour at room temperature and further rounds of washes. Colorimetric change was performed by adding the TMB Plus2 “Ready to Use” Substrate (Kem En Tec, cat # 4395H) for 10 min at room temperature. The reaction was stopped by adding H2SO4 (0.3 M) and optical density was measured using an ELISA plate reader at 450 nm. The concentration of MHC class I and β2m molecules used in such assays is normally in the nanomolar range [35]. […] We are in the process of generating a β2m without the extra start methionine, which should allow use of recombinant molecules in the nanomolar range.

CTL line BV50 = experiment: p-MHC class I tetramer staining of CTL line BV50; assay type: cell-based, bovine
Procedure: as §1

BoLA-T5 = experiment: peptide-BoLA binding assay, BoLA-T5; set-up: species or system bovine; conditions: peptide-BoLA binding assays
Procedure: as §2

BoLA-3*00101 = tested on: BoLA-3*00101; set-up: method as in PMID 18070892; conditions: ref [29]; cited from earlier work
BoLA-T7 (bovine) = experiment: not stated; preliminary data, not shown
PBMC of BoLA-A18 cattle = experiment: ex vivo tetramer staining of PBMC from ITM-vaccinated cattle; conditions: days 15 to 17 post ITM vaccination, T. parva Muguga 3308; Tp1_214-224-BoLA-6*01301 tetramers; three BoLA-A18 cattle
Procedure: Three cattle of BoLA-A18 haplotype (typed with PCR primers [forward] 5’-[…]-3’ and [reverse] 5’-[…]-3’ specific for BoLA-6*01301) were vaccinated by ITM [24] using the T. parva strain Muguga 3308. Whole blood was collected from these cattle at the day of vaccination (day 0) and every two days till appearance of tetramer positive cells. PBMC were purified on Ficoll paque density gradients at 2500 rpm for 25 min and 5 × 10^5 PBMC were stained with the Tp1_214-224-BoLA-6*01301 tetramer as described in the flow cytometry procedure. This animal experiment was approved by the ILRI IACUC committee [# 2012.10].

CTL line BB007 [2] = experiment: multiple staining of tetramer-positive cells (CD8, FasL, perforin); assay type: cell-based, bovine
Procedure: Flow cytometry data were acquired on a BD FACSCanto™ II instrument (BD Biosciences). Compensation controls for PE, PerCP, FITC and APC were included for automatic compensation by the FACS DIVA software. 10 μL BoLA class I tetramer was used for staining cells (between 2 × 10^5 and 5 × 10^5 cells per sample). CD8 staining was done by incubating cells with ILRI monoclonal antibody ILA51 (IgG1) and using rat anti-mouse IgG1-PerCP (BD; cat # 340272) as the secondary antibody. Staining for perforin was done using anti-human-perforin-FITC (BD Pharmingen, San diego, CA, USA, cat# 556577) and staining for Fas-ligand was done using primary rabbit anti-Fas ligand (Santa Cruz biotechnology, cat no. SC-957) and secondary FITC-coupled anti-rabbit IgG antibody (Sigma, MO, USA, cat# F-0382). All staining were conducted in PBS-0.5% BSA except for intracellular staining with anti-perforin where cells were incubated and stained in PBS-0.1%Saponin-10% FBS. Negative control for intracellular staining was done with anti-dansyl-FITC antibody (BD Pharmingen, San diego, CA, USA, cat# 556577). The data were analyzed using the FlowJo software version 7.6.5.

Substance: CGAELNHFL [Tp8_379-387]
- tetramer positive cells (CTL line Bx63): about 3%

Substance: FAQSLVCVL [Tp2_96-104, irrelevant peptide for BoLA-6*01301]
- binding to BoLA-6*01301 (in words) (BoLA-6*01301): does not bind BoLA-6*01301
- tetramer staining of CTL (in words) (CTL line BB007 [1]): low level smear staining
- tetramer positive cells (CTL line Bx196): about 65%

Substance: SKADVIAKY [Tp5_87-95]
- p-MHC monomer binding to BoLA-1*02301 (in words) (BoLA-1*02301): confirmed by p-MHC monomer binding assays; also recorded: does indeed bind both BoLA molecules
- co-staining by Tp5_87-95-BoLA-1*02301 (PE) and Tp5_87-95-BoLA-T5 (APC) tetramers (in words) (CTL line BV50; CD8-gated, Figure 7C): both tetramers bind the same population of CTL; also recorded: a single TCR can recognize the Tp5_87-95 epitope presented by either BoLA molecule
- tetramer staining of BV50 (in words) (CTL line BV50; peptide as Tp5_87-95-BoLA-1*02301 tetramer, BV50 and 495 lines tested): The only CTL line stained by this tetramer was BV50
- tetramer staining of BV50 (in words) (CTL line BV50; peptide as Tp5_87-95-BoLA-T5 tetramer, Figure 7B): also stained by Tp5_87-95-BoLA-T5 p-MHC class I tetramers
- peptide-BoLA binding, BoLA-T5 (in words) (BoLA-T5): does indeed bind both BoLA molecules

Substance: TGASIQTTL [Tp4 CTL epitope, control peptide for BoLA-3*00101]
- binding to BoLA-3*00101 (in words) (BoLA-3*00101): known binder to BoLA-3*00101

Substance: Tp7_(206-214) peptide
- Kd (BoLA-T7 (bovine)): 252 nM

Substance: Tp7_(207-214) peptide
- Kd (BoLA-T7 (bovine)): 142 nM

Substance: VGYPKVKEEML [Tp1_214-224]
- tetramer staining of CTL (in words) (CTL line BB007 [1]): staining of a clear distinct cell population
- frequency of Tp1 tetramer positive cells in PBMC (PBMC of BoLA-A18 cattle): about 1%
- CD8 and perforin, triple staining (CTL line BB007 [2]; Figure 4D): tetramer-positive cells are also positive for CD8 and perforin
- CD8 expression of Tp1 tetramer positive cells (CTL line BB007 [2]; Tp1_214-224-BoLA-6*01301 tetramer, Figure 4A): all Tp1 positive cells in the cell line BB007 were CD8-positive
- FasL expression of Tp1 tetramer positive cells (CTL line BB007 [2]; Tp1_214-224-BoLA-6*01301 tetramer, Figure 4B): FasL-positive
- perforin expression of Tp1 tetramer positive cells (CTL line BB007 [2]; Tp1_214-224-BoLA-6*01301 tetramer, Figure 4C): perforin-positive

Substance: YMYRVWSPL
- binding to BoLA-6*01301 (in words) (BoLA-6*01301): binds to BoLA-6*01301
- affinity for BoLA-6*01301 (BoLA-6*01301; control peptide from a bank of random nonamer peptides, binding assay as described in [34]): ≥ 1 nM
- tetramer staining of CTL (in words) (CTL line BB007 [1]): very low staining

Source: article PMC4018993, “Use of “one-pot, mix-and-read” peptide-MHC class I tetramers and predictive algorithms to improve detection of cytotoxic T lymphocyte responses in cattle” (Veterinary Research, 2014)
